# Laboratory results from patent publication US7888487B2, “Pyrazole derivative, medicinal composition containing the same, medicinal use thereof and intermediate in producing the same” (Kissei Pharmaceutical Co., Ltd., priority 2002, dated 2011).
# Target: T1, human 1,5-anhydroglucitol/fructose/mannose transporter (human SMINT) (Homo sapiens, UniProt Q2M3M2)
# T1 construct: expressed in transfected cells; host or cells: COS-7 cells (RIKEN CELL BANK RCB0539), transient lipofection of SMINT/pME18S-FL
# T1 sequence (Q2M3M2 1-681): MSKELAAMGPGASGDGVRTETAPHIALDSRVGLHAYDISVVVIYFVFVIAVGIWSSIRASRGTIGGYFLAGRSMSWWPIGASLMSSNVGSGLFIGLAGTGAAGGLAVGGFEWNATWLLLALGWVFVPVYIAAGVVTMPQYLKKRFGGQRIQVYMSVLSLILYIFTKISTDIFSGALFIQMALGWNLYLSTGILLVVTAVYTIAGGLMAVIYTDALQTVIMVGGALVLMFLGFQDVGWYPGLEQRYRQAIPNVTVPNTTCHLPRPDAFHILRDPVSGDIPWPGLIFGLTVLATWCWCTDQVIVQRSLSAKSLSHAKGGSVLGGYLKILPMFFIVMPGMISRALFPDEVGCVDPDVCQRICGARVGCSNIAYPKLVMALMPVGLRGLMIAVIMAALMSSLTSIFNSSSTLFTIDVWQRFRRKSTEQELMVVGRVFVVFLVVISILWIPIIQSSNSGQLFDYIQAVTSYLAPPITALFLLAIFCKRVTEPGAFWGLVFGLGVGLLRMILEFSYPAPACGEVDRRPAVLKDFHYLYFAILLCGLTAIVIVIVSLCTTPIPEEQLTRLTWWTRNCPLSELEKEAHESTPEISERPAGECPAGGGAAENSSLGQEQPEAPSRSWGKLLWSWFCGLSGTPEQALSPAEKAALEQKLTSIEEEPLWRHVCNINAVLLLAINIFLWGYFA
# Test: Confirmatory test for inhibitory activity on human 1,5-anhydroglucitol/fructose/mannose transporter (inhibition assay of methyl-α-D-glucopyranoside uptake activity)
# Assay type: cell-based
# Details: COS-7 cells transiently expressing human SMINT; uptake of 1 mM methyl-α-D-glucopyranoside (α-MG), 1 hour, 37° C.; logit plot analysis
# Method: (§1) Human SMINT-carrying expression plasmid SMINT/pME18S-FL (denotation of bacteria: Escherichia coli/SMINT2010324), which was deposited with NITE Patent Microorganisms Depositary on Mar. 12, 2002, was transfected to COS-7 cells (RIKEN CELL BANK RCB0539) by lipofection method. LIPOFECTAMINE PLUS reagent (Invitrogen) was used as the lipofection reagent. A day before the lipofection, COS-7 cells were suspended in D-MEM medium (Invitrogen) at 6×10^6 cells per 1 mL, and dispensed 50 μL per well of 96-well plate. The lipofection was performed by the following methods. For each well, 0.1 μg of the plasmid was diluted with 10 μL of D-MEM, added 0.5 μL of PLUS reagent, mixed gently, and kept stand for 15 minutes to prepare Plasmid Dilute Solution. For each well, 0.5 μL of LIPOFECTAMINE reagent was diluted with 10 μL of D-MEM to prepare LIPOFECTAMINE Dilute Solution. The Plasmid Dilute Solution was mixed with an equal volume of the LIPOFECTAMINE Dilute Solution, kept stand for 15 minutes, dispensed 20 μL per well of cell culture medium, and incubated at 37° C. under 5% CO2 for 5 hours. Then D-MEM containing 16.7% fetal bovine serum (Sanko Jun-yaku) was dispensed 100 μL per well. After 2 days culture, the cells were used for the inhibition assay of methyl-α-D-glucopyranoside uptake activity.
# Confirmatory Test for Inhibitory Activity on Human 1,5-anhydroglucitol/fructose/mannose Transporter
# (§2) 1) Preparation of Cells Transiently Expressing Human SMINT
# The cells were prepared according to the method described in 1) of Test Example 2.
# 2) Inhibition Assay of methyl-α-D-glucopyranoside Uptake Activity
# (§3) To Uptake Buffer consisting of 140 mM sodium chloride, 2 mM potassium chloride, 1 mM calcium chloride, 1 mM magnesium chloride, 10 mM 2-[2-(2-hydroxyethyl)-1-piperazinyl]-ethanesulfonic acid, and 5 mM tris(hydroxymethyl)aminomethane (pH 7.4), was added methyl-α-D-glucopyranoside (α-MG) composed of its non-radiolabeled form and ^14C-labeled form at 1 mM as the final concentration. For measurement of basal uptake, Basal Buffer was prepared by the addition of 140 mM choline chloride instead of sodium chloride of the Uptake Buffer. In order to determine the substrate specificity among natural sugars, natural sugars were solubilized in distilled water, diluted with distilled water into appropriate concentrations, and added to the Uptake Buffer to prepare Assay Buffer. […] To the cell lysates were added 150 μL per well of MicroScint 40 (Packard), mixed well, and the radioactivity was measured in a microscintillation counter TOPCOUNT (Packard). α-MG uptake by the cells treated with each concentration of test compounds was calculated as relative activity to control group, which is set as 100% uptake after deducting the basal uptake. […]
row,IC50 [nM],Structure (SMILES)
1,92,COc1ccc(Cc2c(O[C@@H]3O[C@H](CO)[C@@H](O)[C@H](O)[C@H]3O)nn(C(C)C)c2-c2ccc(OC)cc2)cc1 [Example 1]
2,444,"CC(C)c1c(Cc2ccccc2)c(O[C@@H]2O[C@H](CO)[C@@H](O)[C@H](O)[C@H]2O)nn1C(C)C [Example 87, 4-Benzyl-3-(β-D-glucopyranosyloxy)-1,5-diisopropyl-1H-pyrazole]"
3,245,COc1ccc(Cc2c(O[C@@H]3O[C@H](CO)[C@@H](O)[C@H](O)[C@H]3O)nn(-c3ccccc3F)c2C(C)C)cc1 [Example 99]
4,296,COc1ccc(Cc2c(O[C@@H]3O[C@H](CO)[C@@H](O)[C@H](O)[C@H]3O)nn(C(C)C)c2-c2ccc3c(c2)OCCO3)cc1 [Example 119]

# Target: T2, human SMINT (Homo sapiens, UniProt Q2M3M2)
# T2 construct: expressed in transfected cells; host or cells: COS-7 cells (RIKEN CELL BANK RCB0539), transient lipofection of SMINT/pME18S-FL
# T2 sequence (Q2M3M2 1-681): T1 sequence (Q2M3M2 1-681)
# Test: Confirmatory test for substrate specificity of human SMINT (inhibition assay of methyl-α-D-glucopyranoside uptake activity with natural sugars)
# Assay type: cell-based
# Details: COS-7 cells transiently expressing human SMINT; 1 mM α-MG, 1 hour, 37° C.
# From the text: Confirmatory Test for Substrate Specificity of Human SMINT
# as §2
# as §1, with “After 2 days culture, the cells were used for the inhibition assay of methyl-α-D-glucopyranoside uptake activity.” left out
# as §3, with “concentration.” for “concentration. For measurement of basal uptake, Basal Buffer was prepared by the addition of 140 mM choline chloride instead of sodium chloride of the Uptake Buffer. In order to determine the substrate specificity among natural sugars, natural sugars were solubilized in distilled water, diluted with distilled water into appropriate concentrations, and added to the Uptake Buffer to prepare Assay Buffer.”
row,"recognition as substrate by SMINT (inhibition of α-MG uptake, FIG. 2)",Structure (SMILES)
1,recognizes,"OC[C@H]1OC[C@H](O)[C@@H](O)[C@@H]1O [1,5-anhydroglucitol]"
2,recognizes,O=C(CO)[C@@H](O)[C@H](O)[C@H](O)CO [fructose]
3,not,O=C[C@H](O)[C@@H](O)[C@@H](O)[C@H](O)CO [galactose]
